Common to all, as to type: physicochemical
Data set [1] can be described thus: Ratio of polynucleotide/mRNA to lipid (wt/wt).
Data set [2] in a line: Rate of encapsulation of polynucleotide/mRNA (Quant-iT RiboGreen, with and without Triton X-100).
Data set [3] in a line: Average particle size of nucleic acid lipid particle (NICOMP 380ZLS). The method, then: The particle size of the liposome was measured using Zeta Potential/Particle Sizer NICOMP™ 380ZLS (Particle Sizing Systems, LLC). In the tables, the average particle size is indicated by a volume-average particle size, and the numeric value following ±represents a deviation.
The mark [4] stands for this setting: particles of Example 31: DSPC:Chol:LP:PEG-C-DMA=20:48:30:2, CT-157/CT-169 double-stranded polynucleotide.
[5] abbreviates: particles of Example 31, volume-average particle size ± deviation.

On to `CCCCC/C=C\C/C=C\CCCCCCCCC(CCCCCCCC/C=C\C/C=C\CCCCC)OC(=O)OCCN(C)C` [Reference Example 2, 2-(Dimethylamino)ethyl(6Z,9Z,28Z,31Z)-heptatriaconta-6,9,28,31-tetraen-19-yl Carbonate, reference compound], for which the “Ratio of polynucleotide to lipid siRNA/lipid” value in data set [1] (Example 55: particles prepared as in Example 31) is reported as 0.055 wt/wt; in data set [1] (particles of Example 31, total lipids calculated from phospholipid amount and compositional ratio (Table 3)), 0.104 wt/wt. Moreover, the “Rate of polynucleotide encapsulation” value in data set [2] (Example 55: particles prepared as in Example 31 (β-catenin double-stranded polynucleotide)) is reported as 94%; in data set [2] (setting [4]), 89.0%. Moreover, the Average particle size in data set [3] (Example 55: particles prepared as in Example 31, ± deviation) came to 165 ± 11 nm; in data set [3] (setting [5]), 139 ± 50 nm.

With `CCCCC/C=C\C/C=C\CCCCCCCC(CCCCCCCCCC)OC(=O)OCCCN(C)C` (stereo not drawn) [Example 8, 3-Dimethylaminopropyl(9Z,12Z)-octacosa-19,22-dien-11-yl Carbonate], in data set [1] (particles of Example 31, total lipids calculated from phospholipid, cholesterol and LP amounts (Table 4)), the “Ratio of polynucleotide to lipid siRNA/lipid” value was 0.072 wt/wt. Further, the “Rate of polynucleotide encapsulation” value in data set [2] (setting [4]) was 96.4%. In data set [3] (setting [5]), this molecule yielded an Average particle size of 157 ± 46 nm.
